Experimental data taken from PubChem BioAssay (NCI).
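Exposure lasted 48 hours, with cells grown in 96-well plates and compounds tested at five concentrations. GI50 marks 50% less growth. TGI denotes the concentration required for complete inhibition of growth.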

Tests used:
Assay in all cases: inhibition of tumour cell growth, NCI panel, 48 h
[1] = tested on: 786-0 renal
[2] = tested on: A498 renal
[3] = tested on: A549 NSCLC
[4] = tested on: ACHN renal
[5] = tested on: BT-549 breast
[6] = tested on: CAKI-1 renal
[7] = tested on: CCRF-CEM leukemia
[8] = tested on: COLO 205 colon
[9] = tested on: DU-145 prostate
[10] = tested on: EKVX NSCLC
[11] = tested on: HCC-2998 colon
[12] = tested on: HCT-116 colon
[13] = tested on: HCT-15 colon
[14] = tested on: HL-60(TB) leukemia
[15] = tested on: HOP-62 NSCLC
[16] = tested on: HOP-92 NSCLC
[17] = tested on: HS 578T breast
[18] = tested on: HT29 colon
[19] = tested on: IGROV1 ovarian
[20] = tested on: K-562 leukemia
[21] = tested on: KM12 colon
[22] = tested on: LOX IMVI melanoma
[23] = tested on: M14 melanoma
[24] = tested on: MALME-3M melanoma
[25] = tested on: MCF7 breast
[26] = tested on: MDA-MB-231 breast
[27] = tested on: MDA-MB-435
[28] = tested on: MDA-MB-468 breast
[29] = tested on: MOLT-4 leukemia
[30] = tested on: NCI-H226 lung
[31] = tested on: NCI-H23 lung
[32] = tested on: NCI-H460 lung
[33] = tested on: NCI-H522 lung
[34] = tested on: NCI/ADR-RES ovarian
[35] = tested on: OVCAR-3 ovarian
[36] = tested on: OVCAR-4 ovarian
[37] = tested on: OVCAR-5 ovarian
[38] = tested on: OVCAR-8 ovarian
[39] = tested on: PC-3 prostate
[40] = tested on: RPMI-8226 leukemia
[41] = tested on: RXF 393 renal
[42] = tested on: SF-268 CNS
[43] = tested on: SF-295 CNS
[44] = tested on: SF-539 CNS
[45] = tested on: SK-MEL-2 melanoma
[46] = tested on: SK-MEL-28 melanoma
[47] = tested on: SK-MEL-5 melanoma
[48] = tested on: SK-OV-3 ovarian
[49] = tested on: SN12C renal
[50] = tested on: SNB-19 CNS
[51] = tested on: SNB-75 CNS
[52] = tested on: SR leukemia
[53] = tested on: SW-620 colon
[54] = tested on: T-47D breast
[55] = tested on: TK-10 renal
[56] = tested on: U251 CNS
[57] = tested on: UACC-257 melanoma
[58] = tested on: UACC-62 melanoma
[59] = tested on: UO-31 renal

Cc1ccc(/C=C/C(=O)c2ccc(S(=O)(=O)NCCNc3nc(Nc4ccc(F)cc4)nc(N(C)C)n3)cc2)cc1
GI50 [1]: 10.5 µM | TGI [1]: 23.1 µM | GI50 [2]: 12.6 µM | TGI [2]: 25.5 µM | GI50 [3]: 10.5 µM | TGI [3]: 28.6 µM | GI50 [4]: 6.31 µM | TGI [4]: 18.9 µM | GI50 [5]: 15.7 µM | TGI [5]: 30.1 µM | GI50 [6]: 6.98 µM | TGI [6]: 22.6 µM | GI50 [7]: 5.28 µM | TGI [7]: > 100 µM | GI50 [8]: 6.51 µM | TGI [8]: 20.9 µM | GI50 [9]: 14 µM | TGI [9]: 32.4 µM | GI50 [10]: 4.96 µM | TGI [10]: 16.9 µM | GI50 [11]: 4.5 µM | TGI [11]: 15.8 µM | GI50 [12]: 1.75 µM | TGI [12]: 3.28 µM | GI50 [13]: 3.92 µM | TGI [13]: 10.9 µM | GI50 [14]: 5.58 µM | TGI [14]: 32.1 µM | GI50 [15]: 15.3 µM | TGI [15]: 31.4 µM | GI50 [16]: 7.63 µM | TGI [16]: 22.2 µM | GI50 [17]: 10.7 µM | TGI [17]: 47.4 µM | GI50 [18]: 2.38 µM | TGI [18]: 5.25 µM | GI50 [19]: 15.1 µM | TGI [19]: 31 µM | GI50 [20]: 3.89 µM | TGI [20]: 25.3 µM | GI50 [21]: 5.41 µM | TGI [21]: 24.5 µM | GI50 [22]: 4.12 µM | TGI [22]: 15.3 µM | GI50 [23]: 5.91 µM | TGI [23]: 19.7 µM | GI50 [24]: 16.4 µM | TGI [24]: 31.6 µM | GI50 [25]: 2.01 µM | TGI [25]: 5.8 µM | GI50 [26]: 6.56 µM | TGI [26]: 20 µM | GI50 [27]: 6.03 µM | TGI [27]: 21.6 µM | GI50 [28]: 4.66 µM | TGI [28]: 17 µM | GI50 [29]: 3.86 µM | TGI [29]: 48.6 µM | GI50 [30]: 10.4 µM | TGI [30]: 25.8 µM | GI50 [31]: 11.3 µM | TGI [31]: 23.8 µM | GI50 [32]: 4.22 µM | TGI [32]: 15.8 µM | GI50 [33]: 5.24 µM | TGI [33]: 18.1 µM | GI50 [34]: 8.39 µM | TGI [34]: 21.1 µM | GI50 [35]: 11.3 µM | TGI [35]: 24.8 µM | GI50 [36]: 7.79 µM | TGI [36]: 33.8 µM | GI50 [37]: 14.9 µM | TGI [37]: 28.2 µM | GI50 [38]: 13 µM | TGI [38]: 27 µM | GI50 [39]: 3.54 µM | TGI [39]: 18.2 µM | GI50 [40]: 2.73 µM | TGI [40]: 8.28 µM | GI50 [41]: 4.98 µM | TGI [41]: 18.2 µM | GI50 [42]: 8.76 µM | TGI [42]: 29.2 µM | GI50 [43]: 11.5 µM | TGI [43]: 23.8 µM | GI50 [44]: 13 µM | TGI [44]: 25.9 µM | GI50 [45]: 11.2 µM | TGI [45]: 24.2 µM | GI50 [46]: 11.3 µM | TGI [46]: 23.7 µM | GI50 [47]: 8.25 µM | TGI [47]: 20.7 µM | GI50 [48]: 17 µM | TGI [48]: 45.9 µM | GI50 [49]: 11.2 µM | TGI [49]: 23.4 µM | GI50 [50]: 11 µM | TGI [50]: 23.6 µM | GI50 [51]: 7.59 µM | TGI [51]: 45 µM | GI50 [52]: 2.76 µM | TGI [52]: 11.2 µM | GI50 [53]: 7.53 µM | TGI [53]: 20.9 µM | GI50 [54]: 3.86 µM | TGI [54]: 17.8 µM | GI50 [55]: 15.2 µM | TGI [55]: 30.7 µM | GI50 [56]: 11.6 µM | TGI [56]: 26 µM | GI50 [57]: 17.4 µM | TGI [57]: 33.1 µM | GI50 [58]: 8.4 µM | TGI [58]: 21.1 µM | GI50 [59]: 6.77 µM | TGI [59]: 19.8 µM
